Read-outs that look alike come from different tables or passages of the source.
Legend:
P38β MAPK = P38β MAPK (Homo sapiens, UniProt Q15759); experiment: Kinase screen: SAPK 2b/p38β2 assay; assay type: biochemical
Method: (§1) Generally, the same procedure was used for all assays. Since the total assay volume was 25.5 microliters, 0.5 microliters of inhibitors at 51× assay concentration were added to the plates before any other addition.
(§2) The basic procedure was to add 0.5 microliters inhibitor/control in DMSO to plate. Fifteen microliters of enzyme/substrate/buffer mix were added and incubated for 5 min. Ten microliters MgATP at the relevant concentration were added and incubated for 30 min. The assay was stopped by adding 5 microliters of 3% orthophosphoric acid. The assay was transferred to a p81 filter plate and read in a scintillation counter of 30 sec/well. Note that this assay procedure was not followed for MKK1, which instead involved a two-step assay, and PKC alpha, which required the addition of lipid vesicles.
SAPK 2b/p38β2 assay: SAPK 2b/p38β2 (5-20 mU diluted in 50 mM Tris pH 7.5, 0.1 mM EGTA, 0.1 mM Na3VO4, 0.1% b-mercaptoethanol, 1 mg/ml BSA) was assayed against MBP in a final volume of 25.5 μl containing 25 mM Tris pH 7.5, 0.1 mM EGTA, 0.33 mg/ml MBP, 10 mM magnesium acetate and 0.02 mM [33P-g-ATP] (50-1000 cpm/pmole) and incubated for 30 min at room temperature. Assays were stopped by addition of 5 μl of 0.5 M (3%) orthophosphoric acid and then harvested onto P81 Unifilter plates with a wash buffer of 50 mM orthophosphoric acid.

[1] = molecular target: T1, CDK7 complex (CDK7, Cyclin H, MAT1) (Homo sapiens, UniProt P50613); experiment: CDK7/CycH/MAT1 trimeric complex kinase assay (PKLight luciferase); assay type: biochemical; details: 100 nM; mean of three (standard deviation); read-out: CDK7 % remaining kinase activity after incubation with 100 nM of compound
T1 construct: purchased Proqinase GmbH, Germany
T1 sequence (P50613 whole entry): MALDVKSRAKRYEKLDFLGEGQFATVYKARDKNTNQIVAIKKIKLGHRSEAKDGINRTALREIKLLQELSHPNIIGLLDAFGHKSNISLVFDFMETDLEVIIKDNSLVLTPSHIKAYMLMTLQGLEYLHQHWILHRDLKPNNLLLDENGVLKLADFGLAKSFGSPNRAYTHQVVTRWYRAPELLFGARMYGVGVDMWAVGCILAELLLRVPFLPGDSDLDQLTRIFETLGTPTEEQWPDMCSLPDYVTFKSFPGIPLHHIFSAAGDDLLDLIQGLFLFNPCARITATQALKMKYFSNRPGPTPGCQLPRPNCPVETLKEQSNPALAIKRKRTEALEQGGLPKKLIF
T1 sequence (P51946 whole entry partner): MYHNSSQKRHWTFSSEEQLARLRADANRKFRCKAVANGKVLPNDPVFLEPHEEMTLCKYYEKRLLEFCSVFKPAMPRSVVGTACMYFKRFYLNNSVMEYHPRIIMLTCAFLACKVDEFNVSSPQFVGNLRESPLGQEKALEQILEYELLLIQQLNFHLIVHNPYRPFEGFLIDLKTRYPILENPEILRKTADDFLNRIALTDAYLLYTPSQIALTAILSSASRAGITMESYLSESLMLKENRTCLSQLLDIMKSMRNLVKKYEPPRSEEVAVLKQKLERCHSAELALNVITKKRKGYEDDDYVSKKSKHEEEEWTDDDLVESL
T1 sequence (P51948 whole entry partner): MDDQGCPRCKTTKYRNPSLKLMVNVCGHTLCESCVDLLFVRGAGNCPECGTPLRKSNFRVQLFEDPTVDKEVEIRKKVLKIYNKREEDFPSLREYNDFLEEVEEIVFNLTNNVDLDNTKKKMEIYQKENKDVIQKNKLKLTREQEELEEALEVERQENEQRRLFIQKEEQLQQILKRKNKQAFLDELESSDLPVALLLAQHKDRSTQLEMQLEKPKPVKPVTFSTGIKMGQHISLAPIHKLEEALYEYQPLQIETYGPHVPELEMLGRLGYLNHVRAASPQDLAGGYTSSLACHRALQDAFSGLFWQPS
In short: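 Compound was preincubated with the kinase for 30 min at 30 °C; the reaction then ran for 20 min at 30 °C with 2 μM ATP final. Remaining ATP was measured by PKLight luciferase luminescence at 560 nm. Values were corrected against the no-enzyme control and expressed relative to enzyme-only activity (100%), in triplicate.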

BRSK2 = molecular target: T2, BRSK2 (Homo sapiens, UniProt Q8IWQ3); experiment: Kinase screen: BRSK2 assay; assay type: biochemical
T2 sequence (Q8IWQ3 1-736): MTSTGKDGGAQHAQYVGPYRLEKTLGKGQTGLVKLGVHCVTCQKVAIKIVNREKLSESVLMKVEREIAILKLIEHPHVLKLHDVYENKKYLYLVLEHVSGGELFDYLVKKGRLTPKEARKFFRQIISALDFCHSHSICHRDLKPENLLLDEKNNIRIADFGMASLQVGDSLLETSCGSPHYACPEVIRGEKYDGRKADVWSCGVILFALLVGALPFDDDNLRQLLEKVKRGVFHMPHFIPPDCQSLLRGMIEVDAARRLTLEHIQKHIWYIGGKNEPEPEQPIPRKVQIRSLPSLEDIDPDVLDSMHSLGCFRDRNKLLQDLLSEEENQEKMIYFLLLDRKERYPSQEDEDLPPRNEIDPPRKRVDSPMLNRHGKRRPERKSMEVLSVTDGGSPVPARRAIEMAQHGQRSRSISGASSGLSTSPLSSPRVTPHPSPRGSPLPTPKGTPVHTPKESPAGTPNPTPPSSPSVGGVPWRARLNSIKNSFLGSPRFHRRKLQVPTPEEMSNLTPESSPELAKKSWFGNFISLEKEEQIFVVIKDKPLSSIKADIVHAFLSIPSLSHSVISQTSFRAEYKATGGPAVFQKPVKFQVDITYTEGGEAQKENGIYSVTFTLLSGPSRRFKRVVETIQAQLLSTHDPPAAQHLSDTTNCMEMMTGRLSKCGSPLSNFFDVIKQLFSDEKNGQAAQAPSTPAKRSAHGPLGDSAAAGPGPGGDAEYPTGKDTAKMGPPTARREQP
Method: as §1, §2
BRSK2 assay: BRSK2 (5-20 mU diluted in 50 mM Tris pH 7.5, 0.1 mM EGTA, 0.1% b-mercaptoethanol, 1 mg/ml BSA) was assayed against a substrate peptide ([…]) (SEQ ID NO: 33) in a final volume of 25.5 μl containing 50 mM Tris pH 7.5, 0.05% b-mercaptoethanol, 300 μM substrate peptide, 10 mM magnesium acetate and 0.05 mM [33P-g-ATP] (50-1000 cpm/pmole) and incubated for 30 min at room temperature. Assays were stopped by addition of 5 μl of 0.5 M (3%) orthophosphoric acid and then harvested onto P81 Unifilter plates with a wash buffer of 50 mM orthophosphoric acid.

CDK2/cyclin A complex = molecular target: T3, CDK2/cyclin A complex (Homo sapiens, UniProt P24941); experiment: CDK2/cyclin A kinase assay (as for CDK7); assay type: biochemical; details: for remaining activity at 0.1 µM: 100 nM, mean of three (standard deviation), read-out: CDK2 % remaining kinase activity after incubation with 100 nM of compound; for IC50: Table 7, mean of three experiments, read-out: CDK2 kinase inhibition in vitro (IC50)
T3 construct: purchased Proqinase GmbH, Germany
In short: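 Run as the CDK7 protocol with 50 ng CDK2/cyclin A or 100 ng CDK9/cyclin T; compound 30 min at 30 °C, then 2 μM ATP final for 20 min at 30 °C. ATP depletion by luciferase luminescence (PKLight), triplicate, normalised to no-enzyme and enzyme controls.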

SK-MEL-5 = experiment: cells; details: Homo sapiens
NCI-H226 = experiment: cells; details: Homo sapiens
MDA-MB-231/ATCC = experiment: cells; details: Homo sapiens
MALME-3M = experiment: cells; details: Homo sapiens
[2] = 10 micromolar compound, read-out: mean activity remaining (as a percentage of the original activity), p38b MAPK
[3] = 10 micromolar compound, read-out: mean activity remaining (as a percentage of the original activity), BRSK 2

Chain of P38β MAPK (Q15759 whole entry): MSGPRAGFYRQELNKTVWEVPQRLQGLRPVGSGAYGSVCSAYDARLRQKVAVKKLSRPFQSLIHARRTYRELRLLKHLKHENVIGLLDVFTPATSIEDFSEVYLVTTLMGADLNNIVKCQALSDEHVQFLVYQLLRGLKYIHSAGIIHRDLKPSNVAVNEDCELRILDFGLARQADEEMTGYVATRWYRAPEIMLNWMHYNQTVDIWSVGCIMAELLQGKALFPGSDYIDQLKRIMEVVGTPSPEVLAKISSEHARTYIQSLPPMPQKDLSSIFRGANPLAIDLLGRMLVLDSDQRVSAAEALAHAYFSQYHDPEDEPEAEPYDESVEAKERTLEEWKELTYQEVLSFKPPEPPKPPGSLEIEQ

SMILES | remaining activity at 10 µM (P38β MAPK; [2]) [%] | remaining activity at 0.1 µM [1] [%] | remaining activity at 10 µM (BRSK2; [3]) [%] | remaining activity at 0.1 µM (CDK2/cyclin A complex) [%] | IC50 (CDK2/cyclin A complex) [µM] | further results
CC[C@H](CO)Nc1cc(NCc2ccccc2)n2ncc(C(C)C)c2n1 [ICEC0067] | 98 | 49 | 76 | 100 | > 1 | –
CC(C)c1cnn2c(NCc3ccccc3F)cc(NCCCCCN)nc12 [ICEC-0232] | – | – | – | – | – | mean activity remaining (as a percentage of the original activity), p38b MAPK (P38β MAPK; 10 micromolar compound): 102%; mean activity remaining (as a percentage of the original activity), BRSK 2 (BRSK2; 10 micromolar compound): 81%
CC(C)c1cnn2c(NCc3ccccc3)cc(NCCCCCCCN)nc12 [BS-181] | – | – | – | – | – | remaining activity at 10 µM (P38β MAPK; P38β MAPK, 10 μM, read-out: Mean Remaining Enzyme Activity (%)): 115%; remaining activity at 10 µM (BRSK2; BRSK2, 10 μM, read-out: Mean Remaining Enzyme Activity (%)): 98%
CC(C)c1cnn2c(NCc3ccccc3)cc(N[C@@H](CO)[C@H](O)CO)nc12 [ICEC0318, (3S)-3-(7-(Benzylamino)-3-isopropylpyrazolo[1,5-a]pyrimidin-5-ylamino)butane-1,2,4-triol] | 94 | – | 108 | – | – | GI50 (SK-MEL-5; SK-MEL-5): 0.192 µM; CC50 (SK-MEL-5; SK-MEL-5, read-out: LC50): 5.98 µM; GI50 (NCI-H226; NCI-H226): 0.272 µM; CC50 (NCI-H226; NCI-H226, read-out: LC50): > 100 µM; GI50 (MDA-MB-231/ATCC; MDA-MB-231): 0.438 µM; CC50 (MDA-MB-231/ATCC; MDA-MB-231, read-out: LC50): > 100 µM; GI50 (MALME-3M): 0.404 µM; CC50 (MALME-3M; read-out: LC50): > 100 µM
C=C[C@H](CO)Nc1cc(NCc2ccccc2)n2ncc(C(C)C)c2n1 [ICEC0065] | 104 | 80 | 76 | 95 | > 1 | –

Source: patent US8067424B2, “Selective inhibitors for cyclin-dependent kinases” (Emory University, priority 2007, dated 2011)
